Values quoted from earlier work as cited in patent US20140148379A1, “Control of Unwanted Bacteria in Fermentation Systems with Bacteriocin” (priority 2012, published 2014).

Test system: Staphylococcus aureus
Details: nisin combined with the endolysin produced by Staphylococcal phage; contaminated milk

Question: For nisin, which effect of combination is on record?
Answer: Its effect of combination is “strong synergistic effect”.
